Source: paper PMC4686834, “Autocrine selection of a GLP-1R G-protein biased agonist with potent antidiabetic effects” (Nature Communications, 2015)
*1 amine or outer side, *2 acyl side, *3 side chain or, on linkers, in order; H or OH if unused. Where a SMILES comes first, the peptide text is derived from it. Bridges are numbered along the chain shown (N, C = ends). [ ]: non-standard residue; d: D form. The star is where a group is joined. Leu(3R-OH,Nα-propionyl) = CCC(=O)N[C@H](C(=O)*)[C@H](O)C(C)C; X1 = CC(C)[C@@H](O[*:3])[C@H](N[*:1])C(=O)[*:2]; NMeT = CN[C@H](C(=O)O)[C@@H](C)O; dPhLac = O=C(O)[C@H](O)Cc1ccccc1; NMeA = CN[C@@H](C)C(=O)O; NMeDha = C=C(NC)C(=O)O

Legend:
human GLP-1R [1] = experiment: Ligand bias, equiactive comparison with Ex4 as reference; type: cell-based
human GLP-1R [2] = biological target: T1, human GLP-1R (Homo sapiens, UniProt P43220); experiment: Intracellular calcium mobilization (Gαq), FLIPR, CHO cells expressing the human GLP-1R; type: cell-based; settings: 1 μM FR900359 in loading medium; CHO-GLP-1R expressing cells
T1 construct: expressed in transfected cells
T1 sequence (P43220 24-463): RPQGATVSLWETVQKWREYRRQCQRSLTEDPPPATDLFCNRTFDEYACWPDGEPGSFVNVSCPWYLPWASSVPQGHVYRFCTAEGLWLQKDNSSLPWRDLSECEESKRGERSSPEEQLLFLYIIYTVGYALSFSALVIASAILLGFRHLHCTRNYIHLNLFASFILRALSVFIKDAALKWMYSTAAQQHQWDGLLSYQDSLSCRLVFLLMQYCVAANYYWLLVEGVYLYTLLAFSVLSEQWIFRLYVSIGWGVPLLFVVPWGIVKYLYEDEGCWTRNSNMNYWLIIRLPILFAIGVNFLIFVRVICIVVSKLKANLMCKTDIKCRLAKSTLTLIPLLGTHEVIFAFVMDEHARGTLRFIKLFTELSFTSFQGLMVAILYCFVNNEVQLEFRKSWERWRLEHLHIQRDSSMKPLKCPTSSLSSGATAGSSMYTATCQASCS
Protocol: The stable CHO cell line (generated in-house using CHO-K1 cell line purchased from ATCC) expressing a functional human GLP-1R was cultured in F12 medium (Gibco) supplemented with 10% fetal bovine serum and 500 μg ml^−1 geneticin.

In the case of `CC[C@H](C)[C@H](NC(=O)[C@H](Cc1ccccc1)NC(=O)[C@H](CCC(=O)O)NC(=O)[C@H](CCCCN)NC(=O)[C@H](C)NC(=O)[C@H](C)NC(=O)[C@H](CCC(N)=O)NC(=O)CNC(=O)[C@H](CCC(=O)O)NC(=O)[C@H](CC(C)C)NC(=O)[C@H](Cc1ccc(O)cc1)NC(=O)[C@H](CO)NC(=O)[C@H](CO)NC(=O)[C@@H](NC(=O)[C@H](CC(=O)O)NC(=O)[C@H](CO)NC(=O)[C@@H](NC(=O)[C@H](Cc1ccccc1)NC(=O)[C@@H](NC(=O)CNC(=O)[C@H](CCC(=O)O)NC(=O)[C@H](C)NC(=O)[C@@H](N)Cc1c[nH]cn1)[C@@H](C)O)[C@@H](C)O)C(C)C)C(=O)N[C@@H](C)C(=O)N[C@@H](Cc1c[nH]c2ccccc12)C(=O)N[C@@H](CC(C)C)C(=O)N[C@H](C(=O)N[C@@H](CCCCN)C(=O)NCC(=O)N[C@@H](CCCNC(=N)N)C(N)=O)C(C)C` [GLP-1, glucagon-like peptide-1], the “Ligand bias (in words)” value (human GLP-1R [1]) is reported as “did not demonstrate detectable bias”, the “Bias factor (β), Gq vs β-arrestin 1” value (human GLP-1R [1]; mean ± s.d.) is reported as 0.16 ± 0.13 and the “Bias factor (β), Gq vs β-arrestin 2” value (human GLP-1R [1]; mean ± s.d.) is reported as 0.2 ± 0.08. For the same compound, the “Bias factor (β), Gs vs β-arrestin 2” value (human GLP-1R [1]; mean ± s.d.) was -0.04 ± 0.11 and the “Bias factor (β), Gs vs β-arrestin 1” value (human GLP-1R [1]; mean ± s.d. of a typical experiment performed three times) was -0.08 ± 0.11.
In the case of `C=C1C(=O)N[C@@H](C)C(=O)N(C)[C@@H](C)C(=O)N[C@@H]([C@H](OC(=O)[C@@H](NC(=O)CC)[C@H](O)C(C)C)C(C)C)C(=O)N(C)[C@@H]([C@@H](C)OC)C(=O)O[C@H](C(C)C)[C@H](NC(C)=O)C(=O)O[C@H](Cc2ccccc2)C(=O)N1C` [FR900359] (Ac-[X1][dPhLac][NMeDha]A[NMeA][X1](Leu(3R-OH,Nα-propionyl))[NMeT](Me); ester 1-C), the “Inhibition of P5-induced increase in [Ca2+]i” value (human GLP-1R [2]) is reported as “inhibited”.
